Data as given in patent US20080306118A1, “Process for the crystallization of (R) - or (S) - Lansoprazole” (Takeda Pharmaceutical Company Limited, priority 2000, published 2008).
Each block holds one molecule with its values, some of them ahead of it.

Test: Stability test (relationship between melting start temperature and stability) of lansoprazole enantiomer crystals
Assay type: physicochemical
Conditions: for appearance after stability tests (FIG. 1): 40° C. 2 weeks, 50° C. 2 weeks and 60° C. 2 weeks, compared with before test; for 60° C. one month residual ratio: crystal, stability test at 60° C. for one month
Experimental: Stability Test (Relationship Between Melting Start Temperature and Stability)
Various (R)-lansoprazole crystals obtained in the above-mentioned Reference Examples and Examples were subjected to a stability test at 60° C. for one month.
The crystal of (R)-lansoprazole was subjected to a 40° C. one month stability test.
In FIG. 1, the appearance of a crystal (Example 1) having a melting start temperature of about 134° C. and a crystal (Reference Example 6) having a melting start temperature of about 130° C. before stability test and after stability tests (40° C. 2 weeks, 50° C. 2 weeks and 60° C. 2 weeks) is shown.

[1] = initial (before 40° C. one month stability test)

60° C. one month residual ratio: 89.8%
SMILES: Cc1c(OCC(F)(F)F)ccnc1C[S@@+]([O-])c1nc2ccccc2[nH]1 [Reference Example 3, (R)-2-[[[3-methyl-4-(2,2,2-trifluoroethoxy)-2-pyridinyl]methyl]sulfinyl]-1H-benzimidazole, reference compound]

60° C. one month residual ratio: 99.2%
SMILES: Cc1c(OCC(F)(F)F)ccnc1C[S@@+]([O-])c1nc2ccccc2[nH]1 [Example 6, (R)-2-[[[3-methyl-4-(2,2,2-trifluoroethoxy)-2-pyridinyl]methyl]sulfinyl]-1H-benzimidazole]

appearance after stability tests (FIG. 1): did not show changes in the appearance
60° C. one month residual ratio: 99.7%
SMILES: Cc1c(OCC(F)(F)F)ccnc1C[S@@+]([O-])c1nc2ccccc2[nH]1 [Example 1, (R)-2-[[[3-methyl-4-(2,2,2-trifluoroethoxy)-2-pyridinyl]methyl]sulfinyl]-1H-benzimidazole]

60° C. one month residual ratio: 100%
SMILES: Cc1c(OCC(F)(F)F)ccnc1C[S@@+]([O-])c1nc2ccccc2[nH]1 [Example 2, (R)-2-[[[3-methyl-4-(2,2,2-trifluoroethoxy)-2-pyridinyl]methyl]sulfinyl]-1H-benzimidazole]

The remaining lines, values behind:

SMILES: Cc1c(OCC(F)(F)F)ccnc1C[S@@+]([O-])c1nc2ccccc2[nH]1 [Example 11, (R)-2-[[[3-methyl-4-(2,2,2-trifluoroethoxy)-2-pyridinyl]methyl]sulfinyl]-1H-benzimidazole]
analogous material content (40° C. one month): 0.2%
appearance (40° C. one month): almost white
content (40° C. one month): 99.7%
analogous material content [1]: 0.2%
appearance [1]: almost white
content [1]: 99.5%

SMILES: Cc1c(OCC(F)(F)F)ccnc1C[S@@+]([O-])c1nc2ccccc2[nH]1 [Reference Example 6, (R)-2-[[[3-methyl-4-(2,2,2-trifluoroethoxy)-2-pyridinyl]methyl]sulfinyl]-1H-benzimidazole, reference compound]
appearance after stability tests (FIG. 1): showed appreciably degraded appearance
60° C. one month residual ratio: 93.8%

SMILES: Cc1c(OCC(F)(F)F)ccnc1C[S@@+]([O-])c1nc2ccccc2[nH]1 [Reference Example 7, (R)-2-[[[3-methyl-4-(2,2,2-trifluoroethoxy)-2-pyridinyl]methyl]sulfinyl]-1H-benzimidazole, reference compound]
analogous material content (40° C. one month): 4.6%
appearance (40° C. one month): brown
content (40° C. one month): 93.8%
analogous material content [1]: 0.1%
appearance [1]: almost white
content [1]: 99.6%
